Reference: US20260335263A1, “USE OF TROPIC ACID AND DERIVATIVE THEREOF IN PREPARATION OF DRUG FOR TREATING PSORIASIS” (GUANGDONG PHARMACEUTICAL UNIVERSITY, priority 2022, published 2026)

Experiments:
[1] = system: Psoriasis in Mice Induced by Imiquimod; assay: Histomorphological observation (PASI scoring and day 7 photographs of back skin lesions) of psoriasis in mice induced by imiquimod; assay type: in vivo, male Balb/c mice; conditions: for skin lesion scores (overall score), high-dose: vs high-dose tropic acid, compound III P<0.01, compound IV P<0.05; for skin erythema score, low-dose / skin lesion scores (overall score), low-dose: low-dose 3 mg/kg·d by gavage; for skin erythema score, low-dose: compared with low-dose tropic acid, P<0.01; for skin lesion scores (overall score), low-dose: vs low-dose tropic acid; for therapeutic effect on back skin injury induced by imiquimod: overall conclusion, mouse model of psoriasis; for therapeutic effects compared with tropic acid: summary statement
Source text: 110 male Balb/c mice (8-10 weeks, 20-25 g each) were anesthetized by intraperitoneal injection of 10% chloral hydrate, and approximately 2 cm×4 cm of back hair was shaved off. The mice were randomly divided into 11 groups, with 10 mice in each group, including a blank control group, a model group, a positive drug group, a high-dose tropic acid group (A), a low-dose tropic acid group (B), a high-dose 4-hydroxy-α-(hydroxymethyl)phenylacetic acid group (C), a low-dose 4-hydroxy-α-(hydroxymethyl)phenylacetic acid group (D), a high-dose 3,4-dihydroxy-α-(hydroxymethyl)phenylacetic acid group (E), a low-dose 3,4-dihydroxy-α-(hydroxymethyl)phenylacetic acid group (F), a high-dose 3,4,5-trihydroxy-α-(hydroxymethyl)phenylacetic acid group (G), and a low-dose 3,4,5-trihydroxy-α-(hydroxymethyl)phenylacetic acid group (H) of. Except for the blank control group, which received no treatment, all other groups were treated with 50 mg of 5% imiquimod cream daily to prepare a psoriasis mouse model. All groups were administered simultaneously, with dosing twice daily, and the grouping and dosing regimen are detailed in Table 1. The treatment was continued for 6 days. On the 7th day, the skin lesions of the mice were photographed and recorded, after which the mice were euthanized and their back skin was taken for further use.
Histomorphological observation: Starting from the first day of modeling, the degree of erythema, scales, and inflammatory infiltration thickening on the back of mice were scored daily according to the PASI scoring criteria. The PAIS scoring criteria were as follows: 0-none; 1-mild; 2-moderate; 3-severe cases; 4-extremely severe. The more severe the degree of skin damage, the higher the score. The three points were summed to obtain the total PASI score. The average score of each group of mice were then plotted to create a trend line to observe the changes in skin lesions of each group of mice. Digital photography was used to record the skin lesions on the back of the mice in each group on the 7th day for observation and comparison.

[2] = Solubility observed in structural identification; assay type: physicochemical
[3] = system: Psoriasis in Mice Induced by Imiquimod; assay: Histopathological examination (HE staining, epidermal thickness) of back skin of mice with imiquimod-induced psoriasis; assay type: in vivo, male Balb/c mice; conditions: day 7, HE staining, compared with the model group
Source text: 110 male Balb/c mice (8-10 weeks, 20-25 g each) were anesthetized by intraperitoneal injection of 10% chloral hydrate, and approximately 2 cm×4 cm of back hair was shaved off. […] On the 7th day, the skin lesions of the mice were photographed and recorded, after which the mice were euthanized and their back skin was taken for further use.
Histopathological examination: On the 7th day of modeling, the mice were euthanized, and the back skin of each group of mice was cut and fixed in 4% paraformaldehyde for 24 hours, embedded in paraffin, and sliced into 4 μm sections. HE staining, sealing, and observation of histopathological changes under microscope were performed, and the epidermal thickness was measured using the scale function of the cellSens standard.

[4] = high-dose 6 mg/kg·d by gavage, after 6 days, compared with high-dose tropic acid, P<0.05

## O=C(O)C(CO)c1cc(O)c(O)c(O)c1 (stereo not drawn) [compound IV, 3,4,5-trihydroxy-α-(hydroxymethyl)phenylacetic acid]
[1]; [4]
  degree of inflammatory infiltration and thickening of the skin: significant decrease
  degree of scale reduction: superior
[1]; high-dose 6 mg/kg·d by gavage
  skin lesion scores (overall score), high-dose: superior
[1]; after 6 days
  skin erythema score, low-dose: significantly reduced
[1]; P<0.05
  skin lesion scores (overall score), low-dose: superior
[1]
  therapeutic effect on back skin injury induced by imiquimod: best therapeutic effect
  therapeutic effects compared with tropic acid: more significant therapeutic effects than tropic acid

## O=C(O)C(CO)c1ccc(O)c(O)c1 (stereo not drawn) [compound III, 3,4-dihydroxy-α-(hydroxymethyl)phenylacetic acid]
[1]; [4]
  degree of inflammatory infiltration and thickening of the skin: significant decrease
  degree of scale reduction: superior
  skin erythema score, high-dose: significantly reduced
[1]; high-dose 6 mg/kg·d by gavage
  skin lesion scores (overall score), high-dose: superior
[1]; after 6 days
  skin erythema score, low-dose: significantly reduced
[1]; P<0.05
  skin lesion scores (overall score), low-dose: superior
[1]
  therapeutic effect on back skin injury induced by imiquimod: best therapeutic effect
  therapeutic effects compared with tropic acid: more significant therapeutic effects than tropic acid
[2]; methanol
  solubility in methanol: easily soluble
[2]; water
  solubility in water: easily soluble

## C[C@@H]1C[C@H]2[C@@H]3CCC4=CC(=O)C=C[C@]4(C)[C@@]3(F)[C@@H](O)C[C@]2(C)[C@@]1(O)C(=O)CO [positive drug, dexamethasone]
[3]
  incomplete skin keratinization: significantly improvements
[3]; positive drug = dexamethasone 5 mg/kg·d by gavage
  thickness of the stratum spinosum: significantly reduced
